From US11832615B2 (priority 2013, dated 2023)
Where two headings read alike, the source gives them in different places.

Tests used:
Ralstonia solanacearum [1] = assay type: in vivo; settings: tomato, 33 days after transplantation
Ralstonia solanacearum [2] = assay type: in vivo; settings: tomato, 17 days after transplantation, 10 mgAI/m^2

CCOP(=O)(SC(C)CC)SC(C)CC (stereo not shown) [Cadusafos, cadusafos]
Controlling value (%) (Ralstonia solanacearum [1]; 900 mgAI/m^2, with Paecilomyces fumosoroseus 3 × 10^9 CFU/m^2 (+)): 100%
Controlling value (%) (Ralstonia solanacearum [1]; 900 mgAI/m^2, without Paecilomyces fumosoroseus (−)): 50%

O=S(=O)(CCC(F)=C(F)F)c1ncc(Cl)s1 [Fluensulfone, fluensulfone]
Controlling value (%) (Ralstonia solanacearum [1]; 400 mgAI/m^2, with Paecilomyces fumosoroseus 3 × 10^9 CFU/m^2 (+)): 85%
Controlling value (%) (Ralstonia solanacearum [1]; 400 mgAI/m^2, without Paecilomyces fumosoroseus (−)): 0%

O=C(NCCc1ncc(C(F)(F)F)cc1Cl)c1ccccc1C(F)(F)F [Fluopyram, fluopyram]
Controlling value (%) (Ralstonia solanacearum [1]; 10 mgAI/m^2, with Paecilomyces fumosoroseus 3 × 10^9 CFU/m^2 (+)): 62%
Controlling value (%) (Ralstonia solanacearum [1]; 10 mgAI/m^2, without Paecilomyces fumosoroseus (−)): 0%

CCOP(=O)(SC(C)CC)N1CCSC1=O (stereo not shown) [Fosthiazate, fosthiazate]
Controlling value (%) (Ralstonia solanacearum [1]; 300 mgAI/m^2, with Paecilomyces fumosoroseus 3 × 10^9 CFU/m^2 (+)): 85%
Controlling value (%) (Ralstonia solanacearum [1]; 300 mgAI/m^2, without Paecilomyces fumosoroseus (−)): 0%

COP(=S)(OC)Oc1ccc([N+](=O)[O-])c(C)c1 [MEP, MEP (fenitrothion)]
Controlling value (%) (Ralstonia solanacearum [2]; with Paecilomyces fumosoroseus 3 × 10^9 CFU/m^2 (+)): 75%
Controlling value (%) (Ralstonia solanacearum [2]; without Paecilomyces fumosoroseus (−)): 0%
